These results are taken from US20250092046A1, “TYROSINE KINASE INHIBITORS” (THE UNIVERSITY COURT OF THE UNIVERSITY OF EDINBURGH, priority 2021, published 2025).

Experiment [1] relates to MDA-MB-231 breast cancer cells. In words: Cell viability assay (PrestoBlue). The settings on record: Homo sapiens, 120 h, 5 days treatment. The format is cell-based. The protocol: (§1) Cells were grown in Dulbecco's Modified Eagle Medium (DMEM) or Roswell Park Memorial Institute (RPMI) medium supplemented with serum (10% fetal bovine serum) and L-glutamine (2 mM) and incubated in a Heracell 240i tissue culture incubator at 37° C. and 5% Co2.
(§2) After 48 hours, the media was aspirated from each well and replaced with 95 μl of fresh medium. Compounds, including DMSO, were prepared at 20× in DMEM medium in a separate 96-well intermediate plate. 5 μl from the intermediate plate was then added to each well containing cells. Untreated cells were incubated with DMSO (0.1% v/v). After 5 days, PrestoBlue™ cell viability reagent (10 μl) was added to each well and the plates incubated for 60-90 min. Fluorescence emission was detected using a fluorescence plate reader (excitation 540 nm, emission 590 nm). All conditions were normalised to the untreated cells (100%) and dose-response curves were fitted using GraphPad Prism software.

The target in another experiment is FGR (Homo sapiens, UniProt P09769). In words: Kinase screening assay (mobility shift, LabChip). The format is biochemical. The settings on record: 0.5 micromolar compound. The procedure:
(§3) A 4× Substrate/ATP/Metal (1 […], 5 mmol/L Mg^2+) solution was prepared with buffer (20 mmol/L HEPES, 0.01% Triton X-100, 5 mmol/L DTT, pH 7.5), and a 2× kinase solution was also prepared with buffer (20 mmol/L HEPES, 0.01% Triton X-100, 1 mmol/L DTT, pH 7.5). 5 μL of 4× compound solution, 5 μL of 4× Substrate/ATP/Metal solution, and 10 μL of 2× kinase solution were mixed and incubated in a well of polypropylene 384 well microplate for 1 hour at room temperature. 70 μL of Termination Buffer (QuickScout Screening Assist MSA) was added to the well. The reaction mixture was applied to LabChip™ system, and the product and substrate peptide peaks were separated and quantitated.

The target in another experiment is ABL (Homo sapiens, UniProt P00519). Nature of the experiment: Kinase screening assay (mobility shift, LabChip). The format is biochemical. The note with it: 0.5 micromolar compound. The procedure: as §3
The next experiment has as its target HCK (Homo sapiens, UniProt P08631). Nature of the experiment: Kinase screening assay (mobility shift, LabChip). It is filed as biochemical. The settings on record: 0.5 micromolar compound. The procedure:
as §3

The next experiment concerns the target KDR (Homo sapiens, UniProt P35968). In words: Kinase screening assay (mobility shift, LabChip). It is filed as biochemical. The settings on record: 0.5 micromolar compound. The procedure:
as §3

A further experiment has as its target FYNa (Homo sapiens, UniProt P06241). Nature of the experiment: Kinase screening assay (mobility shift, LabChip). The format is biochemical. The note with it: 0.5 micromolar compound. The protocol: as §3
A further experiment deals with Her4 (Homo sapiens, UniProt Q15303). In words: Kinase screening assay (mobility shift, LabChip). The format is biochemical. The note with it: 0.5 micromolar compound. The protocol: as §3
Another experiment deals with LCK (Homo sapiens, UniProt P06239). Nature of the experiment: Kinase screening assay (mobility shift, LabChip). It is filed as biochemical. The settings on record: 0.5 micromolar compound. The protocol:
as §3

The next experiment has as its target EGFR (Homo sapiens, UniProt P00533). In words: Kinase screening assay (mobility shift, LabChip). The format is biochemical. The settings on record: 0.5 micromolar compound. The protocol: as §3
The next experiment deals with RET (Homo sapiens, UniProt P07949). In words: Kinase screening assay (mobility shift, LabChip). The note with it: 0.5 micromolar compound. The format is biochemical. The procedure:
as §3

A further experiment has as its target LYNa (Homo sapiens, UniProt P07948). In words: Kinase screening assay (mobility shift, LabChip). The format is biochemical. The note with it: 0.5 micromolar compound. The procedure:
as §3

The next experiment concerns the target KIT (Homo sapiens, UniProt P10721). In words: Kinase screening assay (mobility shift, LabChip). The format is biochemical. The settings on record: 0.5 micromolar compound. The procedure: as §3
For the next experiment, the target named is PDGFR alpha (Homo sapiens, UniProt P16234). In words: Kinase screening assay (mobility shift, LabChip). The format is biochemical. The note with it: 0.5 micromolar compound. The procedure:
as §3

A further experiment addresses BRK (Homo sapiens, UniProt Q13882). Nature of the experiment: Kinase screening assay (mobility shift, LabChip). The format is biochemical. The note with it: 0.5 micromolar compound. The protocol:
as §3

The target of the next experiment is YES (Homo sapiens, UniProt P07947). Nature of the experiment: Kinase screening assay (mobility shift, LabChip). The format is biochemical. The note with it: 0.5 micromolar compound. The procedure:
as §3

The target of the next experiment is SRC (Homo sapiens, UniProt P12931). Nature of the experiment: Kinase screening assay (mobility shift, LabChip). The format is biochemical. The settings on record: 0.5 micromolar compound. The procedure:
as §3

The subject of experiment [2] is SRC and its family members. In words: Kinase screening assay, selectivity across the panel. The settings on record: kinase panel of Table 1, 0.5 micromolar. The format is biochemical. The protocol: as §3
The subject of another experiment is cancer cell lines. Nature of the experiment: Screening in cancer cell lines (cell viability). The format is cell-based. The procedure: as §1, §2

HCK, sequence (P08631 whole entry): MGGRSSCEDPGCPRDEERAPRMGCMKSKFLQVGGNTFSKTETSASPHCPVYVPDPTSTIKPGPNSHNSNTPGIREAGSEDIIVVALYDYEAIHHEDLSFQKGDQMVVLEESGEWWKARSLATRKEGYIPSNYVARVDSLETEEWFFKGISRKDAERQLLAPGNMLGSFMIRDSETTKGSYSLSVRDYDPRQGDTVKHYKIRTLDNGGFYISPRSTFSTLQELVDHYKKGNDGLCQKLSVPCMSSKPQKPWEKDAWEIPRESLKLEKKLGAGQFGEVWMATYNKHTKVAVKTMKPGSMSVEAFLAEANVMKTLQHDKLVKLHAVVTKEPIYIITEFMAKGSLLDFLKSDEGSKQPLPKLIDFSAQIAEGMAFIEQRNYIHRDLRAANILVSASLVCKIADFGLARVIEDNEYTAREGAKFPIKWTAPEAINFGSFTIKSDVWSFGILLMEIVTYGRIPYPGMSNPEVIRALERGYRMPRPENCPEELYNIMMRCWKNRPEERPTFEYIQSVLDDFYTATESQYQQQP
RET, sequence (P07949 29-1114): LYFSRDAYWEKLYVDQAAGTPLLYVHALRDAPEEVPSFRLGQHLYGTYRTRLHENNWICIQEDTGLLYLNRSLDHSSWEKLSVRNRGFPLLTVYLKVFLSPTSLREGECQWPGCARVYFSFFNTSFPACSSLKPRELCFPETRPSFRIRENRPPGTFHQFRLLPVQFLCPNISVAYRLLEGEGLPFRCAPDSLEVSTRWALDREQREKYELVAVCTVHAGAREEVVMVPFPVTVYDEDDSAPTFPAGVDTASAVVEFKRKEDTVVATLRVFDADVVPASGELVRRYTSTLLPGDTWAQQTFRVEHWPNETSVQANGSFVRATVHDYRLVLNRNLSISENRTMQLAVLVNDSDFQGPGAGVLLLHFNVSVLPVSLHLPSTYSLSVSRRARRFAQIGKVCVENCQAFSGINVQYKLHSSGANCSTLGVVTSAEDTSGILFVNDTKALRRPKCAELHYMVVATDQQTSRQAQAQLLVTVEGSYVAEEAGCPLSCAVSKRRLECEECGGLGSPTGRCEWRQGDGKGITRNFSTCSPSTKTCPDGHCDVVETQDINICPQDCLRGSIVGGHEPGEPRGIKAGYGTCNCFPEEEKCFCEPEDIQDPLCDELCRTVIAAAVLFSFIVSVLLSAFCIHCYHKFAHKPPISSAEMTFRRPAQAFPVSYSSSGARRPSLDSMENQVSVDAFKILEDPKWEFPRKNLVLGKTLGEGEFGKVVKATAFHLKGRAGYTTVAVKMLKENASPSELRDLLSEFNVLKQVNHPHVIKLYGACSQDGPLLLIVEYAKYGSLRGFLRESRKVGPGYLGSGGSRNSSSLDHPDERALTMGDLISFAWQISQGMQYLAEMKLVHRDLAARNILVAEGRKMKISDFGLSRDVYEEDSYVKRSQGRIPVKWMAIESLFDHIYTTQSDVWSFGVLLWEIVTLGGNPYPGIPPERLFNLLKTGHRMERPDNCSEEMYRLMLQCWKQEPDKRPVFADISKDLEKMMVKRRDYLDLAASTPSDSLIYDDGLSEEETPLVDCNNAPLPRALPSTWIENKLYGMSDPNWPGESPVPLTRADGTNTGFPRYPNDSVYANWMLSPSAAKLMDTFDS
SRC, sequence (P12931 whole entry): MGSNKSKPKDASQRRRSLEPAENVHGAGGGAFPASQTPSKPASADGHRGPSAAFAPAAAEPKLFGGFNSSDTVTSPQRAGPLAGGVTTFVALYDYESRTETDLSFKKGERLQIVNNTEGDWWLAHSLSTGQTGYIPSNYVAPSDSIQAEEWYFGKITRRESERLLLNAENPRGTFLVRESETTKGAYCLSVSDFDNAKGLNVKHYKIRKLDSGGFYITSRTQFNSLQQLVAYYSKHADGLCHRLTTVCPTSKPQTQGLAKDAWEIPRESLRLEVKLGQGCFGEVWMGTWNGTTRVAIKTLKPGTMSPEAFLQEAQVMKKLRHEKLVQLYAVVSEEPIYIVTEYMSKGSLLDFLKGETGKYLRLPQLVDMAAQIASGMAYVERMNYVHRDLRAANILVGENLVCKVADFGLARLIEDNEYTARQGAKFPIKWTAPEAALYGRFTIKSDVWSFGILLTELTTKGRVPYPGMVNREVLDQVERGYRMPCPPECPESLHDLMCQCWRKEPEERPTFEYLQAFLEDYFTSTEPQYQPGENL
LYNa, sequence (P07948 whole entry): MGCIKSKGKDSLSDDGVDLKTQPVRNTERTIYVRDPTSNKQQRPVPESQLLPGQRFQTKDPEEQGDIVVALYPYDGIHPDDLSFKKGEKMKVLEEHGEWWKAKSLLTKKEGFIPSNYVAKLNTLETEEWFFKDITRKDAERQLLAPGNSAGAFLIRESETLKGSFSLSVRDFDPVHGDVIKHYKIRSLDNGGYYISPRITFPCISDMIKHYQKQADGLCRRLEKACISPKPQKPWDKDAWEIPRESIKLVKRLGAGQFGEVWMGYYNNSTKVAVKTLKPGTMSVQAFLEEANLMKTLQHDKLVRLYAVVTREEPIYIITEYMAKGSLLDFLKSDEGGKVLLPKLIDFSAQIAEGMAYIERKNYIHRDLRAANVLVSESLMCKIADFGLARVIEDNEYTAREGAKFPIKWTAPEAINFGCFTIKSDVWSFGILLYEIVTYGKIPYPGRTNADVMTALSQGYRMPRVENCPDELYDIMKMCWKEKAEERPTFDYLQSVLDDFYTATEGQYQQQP
EGFR, sequence (P00533 25-1210): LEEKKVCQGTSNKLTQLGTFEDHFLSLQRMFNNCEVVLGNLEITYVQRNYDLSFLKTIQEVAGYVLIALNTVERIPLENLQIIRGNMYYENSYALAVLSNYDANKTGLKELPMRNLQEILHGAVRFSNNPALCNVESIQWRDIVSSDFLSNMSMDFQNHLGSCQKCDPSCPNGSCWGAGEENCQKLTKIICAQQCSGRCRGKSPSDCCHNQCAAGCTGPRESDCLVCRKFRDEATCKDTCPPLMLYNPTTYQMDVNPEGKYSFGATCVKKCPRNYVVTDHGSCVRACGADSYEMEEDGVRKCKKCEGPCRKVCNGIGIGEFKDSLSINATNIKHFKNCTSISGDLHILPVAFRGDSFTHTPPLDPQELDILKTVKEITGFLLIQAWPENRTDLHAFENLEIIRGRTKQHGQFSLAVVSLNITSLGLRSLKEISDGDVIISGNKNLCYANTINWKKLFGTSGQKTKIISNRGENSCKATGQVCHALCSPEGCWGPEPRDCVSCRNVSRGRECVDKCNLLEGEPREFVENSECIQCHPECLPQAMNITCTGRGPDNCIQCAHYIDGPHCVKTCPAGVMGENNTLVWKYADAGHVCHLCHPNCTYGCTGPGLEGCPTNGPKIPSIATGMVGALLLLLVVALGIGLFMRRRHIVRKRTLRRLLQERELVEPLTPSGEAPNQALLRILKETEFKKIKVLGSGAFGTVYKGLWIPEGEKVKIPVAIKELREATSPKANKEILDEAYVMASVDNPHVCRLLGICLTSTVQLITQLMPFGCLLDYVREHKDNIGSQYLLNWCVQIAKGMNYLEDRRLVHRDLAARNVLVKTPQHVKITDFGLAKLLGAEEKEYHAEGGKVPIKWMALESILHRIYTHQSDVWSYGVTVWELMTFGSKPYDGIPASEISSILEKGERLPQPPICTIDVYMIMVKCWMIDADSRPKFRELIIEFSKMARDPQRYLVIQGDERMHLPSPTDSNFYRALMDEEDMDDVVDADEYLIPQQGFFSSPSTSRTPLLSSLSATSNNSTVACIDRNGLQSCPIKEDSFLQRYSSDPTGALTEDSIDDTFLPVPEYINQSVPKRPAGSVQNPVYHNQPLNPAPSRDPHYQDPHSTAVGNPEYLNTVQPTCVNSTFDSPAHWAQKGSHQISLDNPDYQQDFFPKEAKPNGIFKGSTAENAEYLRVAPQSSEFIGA
YES, sequence (P07947 whole entry): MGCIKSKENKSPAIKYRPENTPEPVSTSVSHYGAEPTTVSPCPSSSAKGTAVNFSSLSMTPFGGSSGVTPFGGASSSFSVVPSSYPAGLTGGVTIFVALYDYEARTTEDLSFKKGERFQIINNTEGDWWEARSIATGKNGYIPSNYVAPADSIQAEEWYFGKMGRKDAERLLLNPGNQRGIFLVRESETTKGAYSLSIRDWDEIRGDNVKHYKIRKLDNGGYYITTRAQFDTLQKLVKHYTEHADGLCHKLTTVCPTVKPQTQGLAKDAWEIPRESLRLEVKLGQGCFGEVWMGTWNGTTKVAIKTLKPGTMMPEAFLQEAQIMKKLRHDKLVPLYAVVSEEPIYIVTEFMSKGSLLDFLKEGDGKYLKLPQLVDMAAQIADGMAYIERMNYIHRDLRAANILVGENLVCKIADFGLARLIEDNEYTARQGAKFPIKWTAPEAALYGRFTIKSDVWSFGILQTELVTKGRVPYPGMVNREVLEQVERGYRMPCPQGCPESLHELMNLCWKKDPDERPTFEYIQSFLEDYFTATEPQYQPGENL
LCK, sequence (P06239 whole entry): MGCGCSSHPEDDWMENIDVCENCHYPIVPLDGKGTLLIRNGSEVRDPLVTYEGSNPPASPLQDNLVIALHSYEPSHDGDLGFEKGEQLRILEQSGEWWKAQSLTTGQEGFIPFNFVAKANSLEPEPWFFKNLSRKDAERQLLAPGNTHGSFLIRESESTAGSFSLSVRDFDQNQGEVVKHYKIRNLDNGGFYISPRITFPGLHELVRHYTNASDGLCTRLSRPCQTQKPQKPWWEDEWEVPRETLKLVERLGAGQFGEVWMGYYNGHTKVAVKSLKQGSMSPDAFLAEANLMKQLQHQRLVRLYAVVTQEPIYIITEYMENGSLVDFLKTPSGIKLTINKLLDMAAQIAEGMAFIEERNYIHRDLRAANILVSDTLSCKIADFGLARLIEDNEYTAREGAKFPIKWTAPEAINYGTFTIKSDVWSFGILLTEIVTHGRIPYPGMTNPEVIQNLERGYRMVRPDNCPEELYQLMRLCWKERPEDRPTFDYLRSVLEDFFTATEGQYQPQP

`CNC1CCN(CCn2nc(-c3ccc(NC(=O)OC(C)(C)C)c(OC)c3)c3c(N)ncnc32)CC1` [Compound 5a, tert-butyl (4-(4-amino-1-(2-(4-(methylamino)piperidin-1-yl)ethyl)-1H-pyrazolo[3,4-d]pyrimidin-3-yl)-2-methoxyphenyl)carbamate] had a GI50 in [1] of 16.2 nM. The inhibition at 0.5 µM at FGR turned out to be 101%; at ABL it was 29.2%; on HCK it was 105%; at KDR it was 1.7%; on FYNa it was 99.4%; on Her4 it was 97.6%. For the same molecule, the inhibition at 0.5 µM is 107% on LCK; 46.3% on EGFR; -0.3% at RET; 102% at LYNa; 2.8% on KIT; 13.6% at PDGFR alpha. Moreover, the inhibition at 0.5 µM at BRK was 98.5%; on YES, 99.7%; at SRC it was 102%. Moreover, the “selectivity for SRC and its family members over other kinases” value in experiment [2] is “more selective than compound 506”. The “potency and selectivity in cancer cell lines compared with parent compound 506” value in the experiment on cancer cell lines is “retains the potency and selectivity characteristics of the parent compound 506”.

In turn, `COc1cc(-c2nn(CCN3CCC(NC(C)C)CC3)c3ncnc(N)c23)ccc1NC(=O)OC(C)(C)C` [Compound 8, tert-butyl (4-(4-amino-1-(2-(4-(isopropylamino)piperidin-1-yl)ethyl)-1H-pyrazolo[3,4-d]pyrimidin-3-yl)-2-methoxyphenyl)carbamate] yielded a GI50 in experiment [1] of 12.5 nM. In addition, the inhibition at 0.5 µM was 100% at FGR; 24.2% at ABL; 98.7% on HCK; -7.3% at KDR; 100% on FYNa; 94.9% at Her4. Further, the inhibition at 0.5 µM at LCK was 101%; on EGFR it was 58.2%; on RET, -2.3%; at LYNa, 101%; at KIT, 2.7%; on PDGFR alpha, 12.2%. The inhibition at 0.5 µM on BRK amounted to 99.5%; on YES, 102%; on SRC, 97.3%. In addition, the “selectivity for SRC and its family members over other kinases” value in experiment [2] is on record as “more selective than compound 506”.

`COc1cc(-c2nn(CCN3CCC(N(C)C)CC3)c3ncnc(N)c23)ccc1NC(=O)OC(C)(C)C` [Compound 506, Tert-butyl (4-(4-amino-1-(2-(4-(dimethylamino)piperidin-1-yl)ethyl)-1H-pyrazolo[3,4-d]pyrimidin-3-yl)-2-methoxyphenyl)carbamate, reference compound]: the inhibition at 0.5 µM is 100% on FGR; 101% on HCK; 2.9% at KDR; 100% on FYNa; 96.7% at Her4; 104% at LCK. Besides, the inhibition at 0.5 µM on EGFR is 46.1%; at RET, 3.8%; on LYNa, 101%; on KIT, 4.4%; on PDGFR alpha, 13.5%; on YES, 99.7%. At SRC, the inhibition at 0.5 µM worked out at 101%.

One may read the GI50 as the concentration giving 50% growth inhibition. A word on the inhibition: it is the relative decrease from the control value, in per cent.
